Test system: diabetic rats
Assay: In vivo study after administration in diabetic rats (blood glucose level-time profiles)
Method: The effect of insulin-loaded nanoparticles on the blood glucose levels is shown by comparing with that of the S.C. injection of insulin. […] SC injection of the insulin solution produces a sharp decrease in blood glucose level (90% in 2 h), which gradually returns to the basal level at 10 h, whereas the hypoglycemia effect is less significant after oral administration of the enteric-coated capsules which produces a slower but prolonged reduction in blood glucose level. The blood glucose level of the diabetic rats increases slightly during the first 4 hours of the experiment, possibly due to physical stress during handling and blood sampling. The hypoglycemic effect and the pharmacological availability (PA) of the enteric-coated capsule, determined by the dose-corrected AAC0-24h over 24 h relative to SC free-form insulin, as noted in Table 4, are 32.9% and 9.2%, respectively.

insulin [Insulin free-form (SC)]
hypoglycemic effect (FIG. 4): significant hypoglycemic effect | time at which blood glucose returns to the basal level (SC injection): 10 h | decrease in blood glucose level (SC injection, in 2 h): 90% | PA (pharmacological availability) (dose-corrected AAC0-24h relative to SC free-form insulin): 100% | Cmin = minimum relative basal glucose concentration in the blood (mean ± SD, n = 3 per group): 11.72 ± 1.1% | AAC0-24 h (n = 3 per group): 1008 % h | Tmax = time at minimum relative basal glucose concentration in the blood (n = 3 per group): 2 h | Hypoglycemic Effect (over 24 h, n = 3 per group): 35.2%

— patent US9101547B2, “Enteric-coated capsule containing cationic nanoparticles for oral insulin delivery” (NANO AND ADVANCED MATERIALS INSTITUTE LIMITED, priority 2011, dated 2015)
